Test results from paper PMC4556614 (PLoS ONE, 2015).
Like-named read-outs stand apart in the source and are kept apart here.

Key:
OCT2 [1] = molecular target: T1, OCT2 (Homo sapiens, UniProt O15244); assay: in vitro
Experimental: (§1) For the transport assays HEK cell lines stably transfected with human OCT2 (HEK-OCT2) or the vector only (HEK-VC) were used. The HEK-OCT2 cell line was established and characterized previously. HEK-OCT2 and HEK-VC cells were seeded in poly-D-lysine (Sigma Aldrich, Taufkirchen, Germany) coated 48-well-plates at a density of 1.2 x 10^5 cells/well. […] Uptake was stopped by washing the cells three times with ice-cold uptake buffer. Afterwards, cells were lysed with 5 mM Tris buffer (pH 7.3) containing 0.1% Triton X-100. The intracellular accumulation of radioactivity was determined by liquid scintillation counting (PerkinElmer, Rodgau-Jügesheim, Germany) and protein concentration of each lysate was measured with bicinchonic acid assay (BCA Protein Assay Kit, Thermo Fisher Scientific, Waltham, MA, USA). We performed two to eight experiments each on at least two separate days, i.e., n = 4–16.
Experimental half-maximal inhibitory concentrations (IC50 values) were measured as the substrate uptake in the presence of increasing concentrations of test drugs. These experiments were performed as described above (three experiments each on two separate days, i.e., n = 6). IC50 values were calculated with GraphPad Prism 5.0 (GraphPad Software, San Diego, CA, USA). IC50 was estimated by a sigmoidal inhibition model and was fit to the equation V = V 0 / (1 + (I / IC50 ) ^n ) by nonlinear regression. V is the net uptake in the presence of the inhibitor, V 0 is the net uptake in the absence of the inhibitor, I is the concentration of the inhibitor and n is the slope.

OCT2 [2] = molecular target: T1, OCT2; assay: Inhibition of OCT2-mediated [3H]MPP+ uptake in HEK-OCT2 cells
Experimental: as §1

[3] = test drug 20 µM, MPP+ 50 μM, 3 min, net uptake HEK-OCT2 minus HEK-VC
[4] = test drug 200 µM, MPP+ 50 μM, 3 min, net uptake HEK-OCT2 minus HEK-VC
[5] = human, pH 7.3, probe [14C]metformin, 1000 µM, % Inhibition of OCT2-dependent MF uptake at 20 µM (mean ± SEM), test drug 20 µM, metformin 1000 μM, 3 min, net uptake HEK-OCT2 minus HEK-VC
[6] = human, pH 7.3, probe [14C]metformin, 1000 µM, % Inhibition of OCT2-dependent MF uptake at 200 µM (mean ± SEM), test drug 200 µM, metformin 1000 μM, 3 min, net uptake HEK-OCT2 minus HEK-VC
[7] = human, pH 7.3, probe [3H]MPP+, 50 µM

T1 sequence (O15244 whole entry): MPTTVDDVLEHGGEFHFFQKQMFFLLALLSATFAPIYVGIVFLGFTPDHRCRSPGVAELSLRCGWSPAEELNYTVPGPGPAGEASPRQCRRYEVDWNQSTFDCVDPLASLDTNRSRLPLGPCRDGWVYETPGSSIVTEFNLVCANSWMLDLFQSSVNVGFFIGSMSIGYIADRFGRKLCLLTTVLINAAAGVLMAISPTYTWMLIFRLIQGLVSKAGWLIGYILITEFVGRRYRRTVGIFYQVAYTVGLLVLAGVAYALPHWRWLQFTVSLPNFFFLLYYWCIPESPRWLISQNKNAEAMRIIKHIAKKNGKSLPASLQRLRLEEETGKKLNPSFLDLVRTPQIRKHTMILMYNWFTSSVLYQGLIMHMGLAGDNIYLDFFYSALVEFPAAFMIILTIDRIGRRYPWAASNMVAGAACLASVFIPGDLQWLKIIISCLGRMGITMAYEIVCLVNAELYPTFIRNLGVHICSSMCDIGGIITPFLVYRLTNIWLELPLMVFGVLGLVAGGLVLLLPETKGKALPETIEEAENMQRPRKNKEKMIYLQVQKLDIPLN

Compound	% Inhibition of OCT2-dependent MF uptake at 20 µM (mean ± SEM) (OCT2 [1]; human, pH 7.3)	% Inhibition of OCT2-dependent MF uptake at 200 µM (mean ± SEM) (OCT2 [1]; human, pH 7.3)	% Inhibition of OCT2-dependent MPP+ uptake at 20 µM (mean ± SEM) (OCT2 [2]; [3]) [%]	% Inhibition of OCT2-dependent MPP+ uptake at 200 µM (mean ± SEM) (OCT2 [2]; [4]) [%]	other results
C#C[C@]1(O)CC[C@H]2[C@@H]3CCc4cc(O)ccc4[C@H]3CC[C@@]21C [Ethinylestradiol]	31.8 ± 8.1	62.2 ± 13.1	14.0 ± 8.8	46.8 ± 6.3	–
Cc1ccc(-c2ncc(Cl)cc2-c2ccc(S(C)(=O)=O)cc2)cn1 [Etoricoxib]	64.1 ± 6.8	99.2 ± 2.7	2.3 ± 4.0	72.4 ± 2.2	–
O=C1[C@H](CC[C@H](O)c2ccc(F)cc2)[C@@H](c2ccc(O)cc2)N1c1ccc(F)cc1 [Ezetimibe]	–	–	–	–	inhibition at 3 min, 20 µM (OCT2 [1]; [5]): -6.8 ± 9.7%; inhibition at 3 min, 200 µM (OCT2 [1]; [6]): 0.2 ± 10%; inhibition at 3 min, 20 µM (OCT2 [2]; [7]): -12.6 ± 12.4%; inhibition at 3 min, 200 µM (OCT2 [2]; [7]): -13.2 ± 11.5%
CCOC(=O)C1=C(C)NC(C)=C(C(=O)OC)C1c1cccc(Cl)c1Cl (centres unmarked) [Felodipine]	4.9 ± 6.1	15.9 ± 12.1	-8.8 ± 12.0	-16.8 ± 10.8	–
CC(C)OC(=O)C(C)(C)Oc1ccc(C(=O)c2ccc(Cl)cc2)cc1 [Fenofibrate]	43.0 ± 9.9	73.4 ± 4.7	12.8 ± 5.0	32.0 ± 5.7	–
CN1C(=O)CN=C(c2ccccc2F)c2cc([N+](=O)[O-])ccc21 [Flunitrazepam]	74.1 ± 3.1	92.9 ± 0.9	5.1 ± 8.4	57.5 ± 6.6	–
CNCCC(Oc1ccc(C(F)(F)F)cc1)c1ccccc1 (centres unmarked) [Fluoxetine]	79.0 ± 0.9	98.5 ± 1.2	20.2 ± 3.5	91.8 ± 2.9	–
OCCN1CCN(CCCN2c3ccccc3Sc3ccc(C(F)(F)F)cc32)CC1 [Fluphenazine]	–	99.3 ± 0.4	39.3 ± 7.0	94.3 ± 3.3	–
CC(C)n1c(/C=C/C(O)CC(O)CC(=O)O)c(-c2ccc(F)cc2)c2ccccc21 (centres unmarked) [Fluvastatin]	-21.1 ± 10.3	32.5 ± 8.1	-10.1 ± 6.1	5.8 ± 9.1	–
NCC1(CC(=O)O)CCCCC1 [Gabapentin]	9.1 ± 8.2	37.6 ± 4.2	–	–	% Inhibition of OCT2-dependent MPP+ uptake at 20 µM (mean ± SEM) (OCT2 [2]; human, pH 7.3): -8.4 ± 9.6; % Inhibition of OCT2-dependent MPP+ uptake at 200 µM (mean ± SEM) (OCT2 [2]; human, pH 7.3): -12.5 ± 9.4
COc1ccc2c3c1O[C@H]1C[C@@H](O)C=C[C@@]31CCN(C)C2 [Galantamine]	51.5 ± 2.8	92.5 ± 1.2	-11.7 ± 9.4	12.3 ± 7.0	–
COc1ccc(Cl)cc1C(=O)NCCc1ccc(S(=O)(=O)NC(=O)NC2CCCCC2)cc1 [Glibenclamide]	38.7 ± 11.9	87.9 ± 3.2	-27.7 ± 5.0	-31.1 ± 1.7	–
CCC1=C(C)CN(C(=O)NCCc2ccc(S(=O)(=O)NC(=O)N[C@H]3CC[C@H](C)CC3)cc2)C1=O [Glimepiride]	66.8 ± 2.9	65.6 ± 4.6	31.1 ± 7.6	53.8 ± 15.2	–
O=C(CCCN1CCC(O)(c2ccc(Cl)cc2)CC1)c1ccc(F)cc1 [Haloperidol]	6.4 ± 8.9	66.9 ± 5.3	-11.2 ± 5.0	-10.6 ± 5.1	–
NS(=O)(=O)c1cc2c(cc1Cl)NCNS2(=O)=O [Hydrochlorothiazide]	-34.7 ± 16.9	-38.6 ± 8.5	-55.4 ± 10.2	-36.6 ± 7.4	–
CC(C)Cc1ccc(C(C)C(=O)O)cc1 (centres unmarked) [Ibuprofen]	23.4 ± 6.7	29.6 ± 4.1	-5.8 ± 8.0	-0.3 ± 7.5	–
CCCCC1=NC2(CCCC2)C(=O)N1Cc1ccc(-c2ccccc2-c2nnn[nH]2)cc1 [Irbesartan]	-16.2 ± 14.4	-14.2 ± 17.8	-18.9 ± 12.4	-50.7 ± 14.1	–
O=[N+]([O-])O[C@H]1CO[C@H]2[C@@H]1OC[C@H]2O[N+](=O)[O-] [Isosorbide dinitrate]	–	–	–	–	inhibition at 3 min, 20 µM (OCT2 [1]; human, pH 7.3): -19.5 ± 6.9%; inhibition at 3 min, 200 µM (OCT2 [1]; human, pH 7.3): 21.7 ± 4.4%; inhibition at 3 min, 20 µM (OCT2 [2]; human, pH 7.3): -20.4 ± 5%; inhibition at 3 min, 200 µM (OCT2 [2]; human, pH 7.3): -82.4 ± 8%
COC(=O)C1=C(C)NC(C)=C(C(=O)OC(C)(C)CN(C)CCC(c2ccccc2)c2ccccc2)C1c1cccc([N+](=O)[O-])c1 (centres unmarked) [Lercanidipine]	–	–	–	–	inhibition at 3 min, 20 µM (OCT2 [1]; [5]): 7.8 ± 3.8%; inhibition at 3 min, 200 µM (OCT2 [1]; [6]): -20.4 ± 11.1%; inhibition at 3 min, 20 µM (OCT2 [2]; [7]): -13.3 ± 8.6%; inhibition at 3 min, 200 µM (OCT2 [2]; [7]): -9.3 ± 3.6%
N[C@@H](Cc1ccc(O)c(O)c1)C(=O)O [Levodopa]	-9.3 ± 6.8	67.3 ± 2.6	-24.6 ± 0.5	11.8 ± 1.4	–
N[C@@H](Cc1cc(I)c(Oc2cc(I)c(O)c(I)c2)c(I)c1)C(=O)O [Levothyroxine]	–	–	–	–	inhibition at 3 min, 20 µM (OCT2 [1]; [5]): 0.8 ± 9.6%; inhibition at 3 min, 200 µM (OCT2 [1]; [6]): 14.3 ± 15.2%; inhibition at 3 min, 20 µM (OCT2 [2]; [7]): 3.6 ± 4.1%; inhibition at 3 min, 200 µM (OCT2 [2]; [7]): -3.3 ± 10.3%
NCCCC[C@H](N[C@@H](CCc1ccccc1)C(=O)O)C(=O)N1CCC[C@H]1C(=O)O [Lisinopril]	-10.3 ± 12.9	2.9 ± 9.0	16.0 ± 9.0	9.8 ± 11.8	–
[Li] [Lithium]	–	–	-28.4 ± 7.5	-36.7 ± 9.7	% Inhibition of OCT2-dependent MF uptake at 20 µM (mean ± SEM) (OCT2 [1]): -15.2 ± 7.9; % Inhibition of OCT2-dependent MF uptake at 200 µM (mean ± SEM) (OCT2 [1]): -14.7 ± 6.8
O=C1Nc2ccc(Cl)cc2C(c2ccccc2Cl)=NC1O (centres unmarked) [Lorazepam]	32.0 ± 2.2	96.5 ± 1.0	0.3 ± 5.1	17.7 ± 7.3	–
